Measurements: patent publication US20170360726A1, “COMPOUNDS, COMPOSITIONS AND METHODS OF USE” (Aquinnah Pharmaceuticals, Inc., priority 2014, published 2017)
Like-named read-outs stand apart in the source and are kept apart here.

What was measured:
[1] = tested on: TDP-43 inclusions in PC12 cells stably expressing wild type (WT) TDP-43-GFP; assay: Dose response assay for TDP-43 inclusion inhibition; type: cell-based; conditions: Rattus norvegicus, PC-12
Protocol: Example 3. Dose Response Assay for TDP-43 Inhibition
Exemplary compounds of the invention were evaluated for efficacy in inhibiting TDP-43 inclusions using a dose response assay. Briefly, PC12 cells stably expressing wild type (WT) TDP-43-GFP were stressed with 15 μM to induce TDP-43 inclusions. The cells were then treated with exemplary compounds of the invention and the inhibitory effect on TDP-43 inclusions was observed using fluorescent microscopy. The ratio of cells with TDP-43 inclusions was calculated based on the total number of cells with detectable GFP expression. A 12-point dose response curve was generated, and the IC50 for each compound tested was determined.

[2] = tested on: Embryonic mouse hippocampal neurons transduced with TDP-43 EGFP; assay: Neuroprotection assay (dendrite length rescue); type: cell-based; conditions: average rescue total dendrite length; compound at 10 times the IC50, treated DIV7, 9, 11, fixed DIV12
Protocol: Example 4. Neuroprotection Assay
1× Hank's balanced salt solution (Ca—/Mg, 500 mL) and 10 mM HEPES, pH 7.25-7.3 (IM stock, 5 mL)
MEM (Earle salts+/Glutamine, 95 mL), FBS (to 2.5%, 2.5 mL), Pen/Strep (1×, 1 mL), glutamine (1×, 1 mL), and D-glucose (0.6% w/v, 0.6 g)
neurobasal media (96 mL), B27 supplement (2 mL), Pen/Strep (1 mL), and glutamine (1 mL).
Embryonic mouse hippocampal neurons were cultured according to Kaech, S. and Banker, G. (2006) Nat Protoc 1:2406-2415 and dissected at […] from CD1 mice. Once all the hippocampi were removed, they were placed in a 15 mL conical Falcon tube on ice and brought to a final volume of 4.5 mL with CMF dissection buffer. 0.5 mL of a 2.5% trypsin-EDTA solution was then added, and the mixture was incubated at 37° C. for 15 min. […] Neurons were traced and analyzed using NeuronJ.
Results of the neuroprotection assay for exemplary compounds of the invention are summarized in Table 1, wherein A represents an average rescue total dendrite length of >150%; B represents an average rescue total dendrite length of 100-149%; C represents an average rescue total dendrite length of 50-99%; D represents an average rescue total dendrite length of 0-49%; E represents an average rescue total dendrite length of <0%; and ND signifies that the average rescue total dendrite length was not determined.

[3] = inhibition of TDP-43 inclusions, PC12 cells expressing WT TDP-43-GFP, 12-point dose response, fluorescent microscopy, read-out: IC50

| SMILES | IC50 [1, 3] [nM] | Average Additive Dendrite Length (%) [2] | IC50 [1] [nM] |
| --- | --- | --- | --- |
| CCc1cccc(C)c1NS(=O)(=O)c1ccccc1C(=O)N1CCCC1 [Compound 100, N-(2-ethyl-6-methylphenyl)-2-(pyrrolidine-1-carbonyl)-benzenesulfonamide] | > 500 | C (C represents an average rescue total dendrite length of 50-99%) | – |
| CCc1cccc(C)c1NS(=O)(=O)c1cnccc1C(=O)N1CCCC1 [Compound 101, N-(2-ethyl-6-methylphenyl)-4-(pyrrolidine-1-carbonyl)pyridine-3-sulfonamide] | < 100 | C (C represents an average rescue total dendrite length of 50-99%) | – |
| CCc1cccc(C)c1NS(=O)(=O)c1cccnc1 [Compound 102, N-(2-ethyl-6-methylphenyl)pyridine-3-sulfonamide] | – | – | 101 to 250 |
